# Measured values as given in publication PMC9668969 (Nature Communications, 2022).
# Target: T1, W206F ELIC (Dickeya chrysanthemi, UniProt P0C7B7, W205F)
# T1 construct: host or cells: OverExpress C43 (DE3) E. coli
# Assay: Tryptophan fluorescence emission spectrum with and without agonist
# Assay type: biochemical, Erwinia chrysanthemi
# Conditions: W206F 30 mM Cys
# Procedure: To measure the tryptophan (Trp) fluorescence emission of ELIC, WT or W206F ELIC was diluted to 3 ml (0.02 mg/ml) and an emission spectrum was collected in a quartz fluorescence cell using a Fluoromax Plus Spectrofluorometer (Horiba Scientific). […] Trp fluorescence measurements with rapid mixing of agonist was carried out using the SX20 stopped-flow spectrofluorometer, outfitted with a 295 nm LED excitation source. Purified ELIC was diluted to 0.1 mg/ml in Trp Stopped-flow Buffer A (10 mM Tris pH 7.5, 100 mM NaCl, 0.05% DDM). A single mixing experiment was performed by mixing ELIC with equal volumes of Buffer A + propylamine. Propylamine was prepared at varying concentrations at 2x the final concentration. The instrument dead time was ~1 ms, enabling capture of most of the time course of change in Trp fluorescence. The time course of decrease in Trp fluorescence after rapid mixing with propylamine was fit to a single exponential to obtain a time constant for the rate of decrease and a measure of the extent of decrease. All replicates were taken from distinct samples.
# T1 sequence (P0C7B7 whole entry W205F): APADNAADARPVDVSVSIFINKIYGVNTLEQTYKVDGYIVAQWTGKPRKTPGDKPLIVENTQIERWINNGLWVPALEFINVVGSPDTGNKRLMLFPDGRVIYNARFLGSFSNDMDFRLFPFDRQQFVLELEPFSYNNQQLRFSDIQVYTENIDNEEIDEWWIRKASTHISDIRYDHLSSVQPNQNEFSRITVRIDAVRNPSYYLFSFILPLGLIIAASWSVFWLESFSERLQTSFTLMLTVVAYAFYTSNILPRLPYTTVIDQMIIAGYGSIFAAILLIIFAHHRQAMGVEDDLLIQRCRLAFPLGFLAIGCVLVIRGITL
smiles,measurement,setting,value
NCCS [cysteamine],Tryptophan fluorescence emission intensity,wavelength 320,771490
same,Tryptophan fluorescence emission intensity,wavelength 321,795430
same,Tryptophan fluorescence emission intensity,wavelength 322,813680
same,Tryptophan fluorescence emission intensity,wavelength 323,843300
same,Tryptophan fluorescence emission intensity,wavelength 324,855410
same,Tryptophan fluorescence emission intensity,wavelength 325,890410
same,Tryptophan fluorescence emission intensity,wavelength 327,921570
same,Tryptophan fluorescence emission intensity,wavelength 328,945690
same,Tryptophan fluorescence emission intensity,wavelength 329,972730
same,Tryptophan fluorescence emission intensity,wavelength 330,989960
same,Tryptophan fluorescence emission intensity,wavelength 331,1002600
same,Tryptophan fluorescence emission intensity,wavelength 332,1020470
same,Tryptophan fluorescence emission intensity,wavelength 333,1032760
same,Tryptophan fluorescence emission intensity,wavelength 334,1043250
same,Tryptophan fluorescence emission intensity,wavelength 335,1051410
same,Tryptophan fluorescence emission intensity,wavelength 336,1059950
same,Tryptophan fluorescence emission intensity,wavelength 337,1062210
same,Tryptophan fluorescence emission intensity,wavelength 338,1071660
same,Tryptophan fluorescence emission intensity,wavelength 339,1076280
same,Tryptophan fluorescence emission intensity,wavelength 340,1083710
same,Tryptophan fluorescence emission intensity,wavelength 341,1085920
same,Tryptophan fluorescence emission intensity,wavelength 342,1080500
same,Tryptophan fluorescence emission intensity,wavelength 343,1081010
same,Tryptophan fluorescence emission intensity,wavelength 344,1074670
same,Tryptophan fluorescence emission intensity,wavelength 345,1071140
same,Tryptophan fluorescence emission intensity,wavelength 346,1066530
same,Tryptophan fluorescence emission intensity,wavelength 347,1060720
same,Tryptophan fluorescence emission intensity,wavelength 348,1058590
same,Tryptophan fluorescence emission intensity,wavelength 349,1045760
same,Tryptophan fluorescence emission intensity,wavelength 350,1042330
same,Tryptophan fluorescence emission intensity,wavelength 351,1034700
same,Tryptophan fluorescence emission intensity,wavelength 352,1019030
same,Tryptophan fluorescence emission intensity,wavelength 353,1010620
same,Tryptophan fluorescence emission intensity,wavelength 354,993340
same,Tryptophan fluorescence emission intensity,wavelength 355,980850
same,Tryptophan fluorescence emission intensity,wavelength 356,973320
same,Tryptophan fluorescence emission intensity,wavelength 357,961650
same,Tryptophan fluorescence emission intensity,wavelength 358,938960
same,Tryptophan fluorescence emission intensity,wavelength 359,924340
same,Tryptophan fluorescence emission intensity,wavelength 360,898600
same,Tryptophan fluorescence emission intensity,wavelength 361,886010
same,Tryptophan fluorescence emission intensity,wavelength 362,867380
same,Tryptophan fluorescence emission intensity,wavelength 363,844340
same,Tryptophan fluorescence emission intensity,wavelength 364,830030
same,Tryptophan fluorescence emission intensity,wavelength 365,813040
same,Tryptophan fluorescence emission intensity,wavelength 366,786750
same,Tryptophan fluorescence emission intensity,wavelength 367,769070
same,Tryptophan fluorescence emission intensity,wavelength 368,749540
same,Tryptophan fluorescence emission intensity,wavelength 369,729430
same,Tryptophan fluorescence emission intensity,wavelength 370,711180
same,Tryptophan fluorescence emission intensity,wavelength 371,692310
same,Tryptophan fluorescence emission intensity,wavelength 372,672500
same,Tryptophan fluorescence emission intensity,wavelength 373,652280
same,Tryptophan fluorescence emission intensity,wavelength 374,629710
same,Tryptophan fluorescence emission intensity,wavelength 375,618580
same,Tryptophan fluorescence emission intensity,wavelength 376,599350
same,Tryptophan fluorescence emission intensity,wavelength 377,580660
same,Tryptophan fluorescence emission intensity,wavelength 378,563670
same,Tryptophan fluorescence emission intensity,wavelength 379,543190
same,Tryptophan fluorescence emission intensity,wavelength 380,522740
same,Tryptophan fluorescence emission intensity,wavelength 381,502820
same,Tryptophan fluorescence emission intensity,wavelength 382,487000
same,Tryptophan fluorescence emission intensity,wavelength 383,475140
same,Tryptophan fluorescence emission intensity,wavelength 384,456600
same,Tryptophan fluorescence emission intensity,wavelength 385,440790
same,Tryptophan fluorescence emission intensity,wavelength 386,423940
same,Tryptophan fluorescence emission intensity,wavelength 387,405220
same,Tryptophan fluorescence emission intensity,wavelength 388,397190
same,Tryptophan fluorescence emission intensity,wavelength 389,381080
same,Tryptophan fluorescence emission intensity,wavelength 390,363380
same,Tryptophan fluorescence emission intensity,wavelength 391,352540
same,Tryptophan fluorescence emission intensity,wavelength 392,336000
same,Tryptophan fluorescence emission intensity,wavelength 393,325360
same,Tryptophan fluorescence emission intensity,wavelength 394,311620
same,Tryptophan fluorescence emission intensity,wavelength 395,300840
same,Tryptophan fluorescence emission intensity,wavelength 396,285190
same,Tryptophan fluorescence emission intensity,wavelength 397,272180
same,Tryptophan fluorescence emission intensity,wavelength 398,260830
same,Tryptophan fluorescence emission intensity,wavelength 399,250140
same,Tryptophan fluorescence emission intensity,wavelength 400,241040
same,Tryptophan fluorescence emission intensity,wavelength 401,226290
same,Tryptophan fluorescence emission intensity,wavelength 402,221660
same,Tryptophan fluorescence emission intensity,wavelength 403,211970
same,Tryptophan fluorescence emission intensity,wavelength 404,203540
same,Tryptophan fluorescence emission intensity,wavelength 405,194410
same,Tryptophan fluorescence emission intensity,wavelength 406,184680
same,Tryptophan fluorescence emission intensity,wavelength 407,177100
same,Tryptophan fluorescence emission intensity,wavelength 408,169410
same,Tryptophan fluorescence emission intensity,wavelength 409,164650
same,Tryptophan fluorescence emission intensity,wavelength 410,155310
same,Tryptophan fluorescence emission intensity,wavelength 411,149680
same,Tryptophan fluorescence emission intensity,wavelength 412,144200
same,Tryptophan fluorescence emission intensity,wavelength 413,137560
same,Tryptophan fluorescence emission intensity,wavelength 414,131490
same,Tryptophan fluorescence emission intensity,wavelength 415,127250
same,Tryptophan fluorescence emission intensity,wavelength 416,120610
same,Tryptophan fluorescence emission intensity,wavelength 417,116040
same,Tryptophan fluorescence emission intensity,wavelength 418,113630
same,Tryptophan fluorescence emission intensity,wavelength 419,109000
same,Tryptophan fluorescence emission intensity,wavelength 420,104760
